Experimental data taken from patent US7504400B2, “MTP inhibiting aryl piperydines or piperazines substituted with 5-membered heterocycles” (Janssen Pharmaceutica N.V., priority 2004, dated 2009).
Counter-ions that a name gives are not always drawn.

Experiments:
Secretion of ApoB = experiment: Quantification of the secretion of ApoB in HepG2 cells; type: cell-based; conditions: Homo sapiens, HepG2, 24 h, 24 hours of incubation with test compound, immunoprecipitation of apoB from medium, read-out: pIC50 value (=-log IC50 value), secretion of ApoB (converted)
Summary of the method: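 At 70% confluency, HepG2 cells in MEM with 10% FCS received compound or DMSO carrier (0.4% final) for 24 h. Secreted apoB in cleared medium immunoprecipitated with sheep anti-apoB then rabbit anti-sheep antibody (24 h each, 8° C); pellet radioactivity counted by liquid scintillation; IC50 expressed as pIC50.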

Structure (SMILES) | melting point | IC50 (Secretion of ApoB)
CCCN(CCC)C(=O)C(CCN1CCN(c2ccc(-n3cnn(C(C)C)c3=O)cc2)CC1)c1ccccc1 (stereo not shown) (as salt: salt) [Compound 2] | 165 °C | –
CC(C)n1ncn(-c2ccc(N3CCN(C(C(=O)Nc4ccc5c(c4)CCC5)c4cccnc4)CC3)cc2)c1=O (stereo not shown) [Compound 209] | 198 to 200 °C | 31.6 to 316 nM
CCOC(=O)C(c1cccnc1)N1CCN(c2ccc(-n3cnn(C(C)C)c3=O)cc2)CC1 (stereo not shown) [Compound 302] | 142 to 143 °C | –
CCOC(=O)C(c1ccccc1)N1CCN(c2ccc(-n3ccn(C(C)c4cccc(F)c4F)c3=O)cc2)CC1 (stereo not shown) [Compound 332] | – | 31.6 to 316 nM
CCOC(=O)C(c1ccccc1)N1CCN(c2ccc(-n3ccn(C(C)c4cc(F)ccc4F)c3=O)cc2)CC1 (stereo not shown) [Compound 334] | – | 31.6 to 316 nM
CCOC(=O)C(c1ccccc1)N1CCN(c2ccc(-n3nc4cccc(C)n4c3=O)cc2)CC1 (stereo not shown) [Compound 347] | – | 316 to 3160 nM
CCOC(=O)c1cc(NC(=O)C(c2ccccc2)N2CCC(c3ccc(-n4cnn(C(C)C)c4=O)cc3)CC2)ccc1C (stereo not shown) [Compound 349] | – | < 31.6 nM
CCOC(=O)C(c1ccccc1)N1CCN(c2ccc(-n3cnn(C(C)c4ccccc4F)c3=O)cc2)CC1 (stereo not shown) [Compound 350] | – | 31.6 to 316 nM
CCOC(=O)CC(NC(=O)C(c1ccccc1)N1CCC(c2ccc(-n3cnn(C(C)C)c3=O)cc2)CC1)c1ccc2c(c1)OCO2 (stereo not shown) [Compound 351] | – | 316 to 3160 nM
COC(=O)CCc1csc(NC(=O)C(c2ccccc2)N2CCC(c3ccc(-n4cnn(C(C)C)c4=O)cc3)CC2)n1 (stereo not shown) [Compound 352] | – | 316 to 3160 nM
COC(=O)c1[nH]c2ccc(C)cc2c1NC(=O)C(c1ccccc1)N1CCC(c2ccc(-n3cnn(C(C)C)c3=O)cc2)CC1 (stereo not shown) [Compound 353] | – | 31.6 to 316 nM
COC(=O)c1ccc2nc(NC(=O)C(c3ccccc3)N3CCC(c4ccc(-n5cnn(C(C)C)c5=O)cc4)CC3)sc2c1 (stereo not shown) [Compound 354] | – | 316 to 3160 nM
CCOC(=O)c1csc(NC(=O)C(c2ccccc2)N2CCN(c3ccc(-n4cnn(C(C)C)c4=O)cc3)CC2)n1 (stereo not shown) [Compound 357] | – | 316 to 3160 nM
CCOC(=O)CC(NC(=O)C(c1ccccc1)N1CCN(c2ccc(-n3ccn(C(C)C)c3=O)cc2)CC1)c1ccc2c(c1)OCO2 (stereo not shown) [Compound 358] | – | 316 to 3160 nM
CCOC(=O)CC(NC(=O)C(c1ccccc1)N1CCN(c2ccc(N3CCN(C(C)C)C3=O)cc2)CC1)c1ccc2c(c1)OCO2 (stereo not shown) [Compound 359] | – | 316 to 3160 nM
CCOC(=O)c1cc(NC(=O)C(c2ccccc2)C2CCN(c3ccc(-n4cnn(C(C)c5ccccc5)c4=O)cc3)CC2)ccc1C (stereo not shown) [Compound 369] | – | 31.6 to 316 nM
CCOC(=O)c1cc(NC(=O)C(c2ccccc2)C2CCN(c3ccc(-n4cnn(C(C)C)c4=O)cc3)CC2)ccc1C (stereo not shown) [Compound 370] | – | 31.6 to 316 nM
CCOC(=O)c1cc(NC(=O)CC2CCN(c3ccc(-n4cnn(C(C)c5ccccc5)c4=O)cc3)CC2)ccc1C (stereo not shown) [Compound 371] | – | 31.6 to 316 nM
CCOC(=O)c1cc(NC(=O)CC2CCN(c3ccc(-n4cnn(C(C)C)c4=O)cc3)CC2)ccc1C [Compound 372] | – | 316 to 3160 nM
CCOC(=O)c1cc(NC(=O)C(Cc2ccccc2)C2CCN(c3ccc(-n4cnn(C(C)c5ccccc5)c4=O)cc3)CC2)ccc1C (stereo not shown) [Compound 373] | – | 316 to 3160 nM
CCOC(=O)c1cc(NC(=O)C(Cc2ccccc2)C2CCN(c3ccc(-n4cnn(C(C)C)c4=O)cc3)CC2)ccc1C (stereo not shown) [Compound 374] | – | 316 to 3160 nM
CCOC(=O)c1ccc(CNC(=O)C(c2ccccc2)C2CCN(c3ccc(-n4cnn(C(C)c5ccccc5)c4=O)cc3)CC2)cc1C (stereo not shown) [Compound 375] | – | 31.6 to 316 nM
CCOC(=O)c1ccc(CNC(=O)C(c2ccccc2)C2CCN(c3ccc(-n4cnn(C(C)C)c4=O)cc3)CC2)cc1C (stereo not shown) [Compound 376] | – | 31.6 to 316 nM

Structure (SMILES) | melting point | IC50 (Secretion of ApoB)
CCOC(=O)c1ccc(CNC(=O)CC2CCN(c3ccc(-n4cnn(C(C)c5ccccc5)c4=O)cc3)CC2)cc1C (stereo not shown) [Compound 377] | – | 31.6 to 316 nM
CCOC(=O)c1ccc(CNC(=O)CC2CCN(c3ccc(-n4cnn(C(C)C)c4=O)cc3)CC2)cc1C [Compound 378] | – | 31.6 to 316 nM
CCOC(=O)c1ccc(CNC(=O)C(Cc2ccccc2)C2CCN(c3ccc(-n4cnn(C(C)c5ccccc5)c4=O)cc3)CC2)cc1C (stereo not shown) [Compound 379] | – | 316 to 3160 nM
CCOC(=O)c1ccc(CNC(=O)C(Cc2ccccc2)C2CCN(c3ccc(-n4cnn(C(C)C)c4=O)cc3)CC2)cc1C (stereo not shown) [Compound 380] | – | 316 to 3160 nM
CCOC(=O)c1cc(CNC(=O)C(c2ccccc2)C2CCN(c3ccc(-n4cnn(C(C)c5ccccc5)c4=O)cc3)CC2)ccc1C (stereo not shown) [Compound 381] | – | < 31.6 nM
CCOC(=O)c1cc(CNC(=O)CC2CCN(c3ccc(-n4cnn(C(C)C)c4=O)cc3)CC2)ccc1C [Compound 382] | – | 31.6 to 316 nM
CCOC(=O)c1cc(CNC(=O)C(Cc2ccccc2)C2CCN(c3ccc(-n4cnn(C(C)c5ccccc5)c4=O)cc3)CC2)ccc1C (stereo not shown) [Compound 383] | – | 316 to 3160 nM
CCOC(=O)c1cc(CNC(=O)C(Cc2ccccc2)C2CCN(c3ccc(-n4cnn(C(C)C)c4=O)cc3)CC2)ccc1C (stereo not shown) [Compound 384] | – | 316 to 3160 nM
CCOC(=O)CC1CCN(c2ccc(-n3cnn(C(C)C)c3=O)cc2)CC1 [Compound 385] | – | 316 to 3160 nM
CCOC(=O)CC1CCN(c2ccc(-n3cnn(C(C)c4ccccc4)c3=O)cc2)CC1 (stereo not shown) [Compound 386] | – | 316 to 3160 nM
CCOC(=O)[C@@H](C)NC(=O)CC1CCN(c2ccc(-n3cnn(C(C)c4ccccc4)c3=O)cc2)CC1 (stereo partly shown) [Compound 391] | – | 316 to 3160 nM
CCOC(=O)[C@@H](NC(=O)CC1CCN(c2ccc(-n3cnn(C(C)c4ccccc4)c3=O)cc2)CC1)C(C)C (stereo partly shown) [Compound 392] | – | 316 to 3160 nM
CCOC(=O)[C@H](NC(=O)CC1CCN(c2ccc(-n3cnn(C(C)c4ccccc4)c3=O)cc2)CC1)C(C)C (stereo partly shown) [Compound 393] | – | 31.6 to 316 nM
CCOC(=O)[C@H](NC(=O)CC1CCN(c2ccc(-n3cnn(C(C)c4ccccc4)c3=O)cc2)CC1)c1ccccc1 (stereo partly shown) [Compound 394] | – | 31.6 to 316 nM
CCOC(=O)[C@@H](NC(=O)CC1CCN(c2ccc(-n3cnn(C(C)c4ccccc4)c3=O)cc2)CC1)c1ccccc1 (stereo partly shown) [Compound 395] | – | 316 to 3160 nM
CCOC(=O)[C@@H](Cc1ccccc1)NC(=O)CC1CCN(c2ccc(-n3cnn(C(C)c4ccccc4)c3=O)cc2)CC1 (stereo partly shown) [Compound 396] | – | 316 to 3160 nM
CCOC(=O)CC[C@H](NC(=O)CC1CCN(c2ccc(-n3cnn(C(C)c4ccccc4)c3=O)cc2)CC1)C(=O)OCC (stereo partly shown) [Compound 397] | – | 316 to 3160 nM
CCOC(=O)[C@H](CC(C)C)NC(=O)CC1CCN(c2ccc(-n3cnn(C(C)c4ccccc4)c3=O)cc2)CC1 (stereo partly shown) [Compound 398] | – | 316 to 3160 nM
COC(=O)C(NC(=O)CC1CCN(c2ccc(-n3cnn(C(C)c4ccccc4)c3=O)cc2)CC1)C(C)C (stereo not shown) [Compound 401] | – | 316 to 3160 nM
CCOC(=O)CCNC(=O)CC1CCN(c2ccc(-n3cnn(C(C)c4ccccc4)c3=O)cc2)CC1 (stereo not shown) [Compound 402] | – | 316 to 3160 nM
CCOC(=O)C(C)NC(=O)CC1CCN(c2ccc(-n3cnn(C(C)c4ccccc4)c3=O)cc2)CC1 (stereo not shown) [Compound 403] | – | 316 to 3160 nM
CCOC(=O)CC(NC(=O)CC1CCN(c2ccc(-n3cnn(C(C)c4ccccc4)c3=O)cc2)CC1)c1ccc2c(c1)OCO2 (stereo not shown) [Compound 404] | – | 316 to 3160 nM
